Measured values published in patent US9072762B2, “Natural composition to decrease effects of a high fat diet” (Board of Supervisors of Louisiana State University And …, priority 2009, dated 2015).

Columns and labels:
[1] = assay type: in vivo, rat; conditions: for Oral bioavailability / absorption: rat, in vivo
Experimental: Thirty-two normal male SD rats were used in the experiment. Prior to treatment, all rats were fasted overnight. The treated group (n=24) received the RUS extract at a dose of 1 g/kg of body weight (0.1% w/w), and the control group (n=8) received the same volume of water via daily gavage for 3 consecutive days. All rats were given free access to food and water after the gavage. Urine was collected cumulatively for 24 hours on the third day after treatment began.

[2] = test system: VEGF; assay: Western blot of HUVEC cell lysates for VEGF expression; assay type: cell-based, human; conditions: 24 hrs, concentrations up to about 40 μg/ml
Experimental: (§1) The HUVEC assay used human umbilical vein endothelial cells purchased from the American Type Culture Collection (ATCC # CRL-1730, Manassas, Va.). Human umbilical vein endothelial cells (HUVEC) were grown in M199 media containing 20% fetal bovine serum, 30 μg/ml endothelial cell growth supplements, 4 mM L-glutamin, 100 U/ml penicillin, and 100 μg/ml streptomycin. Cells were incubated at 37° C. in a humidified atmosphere of 5% CO2. […] Cells were then lysed with lysis buffer containing 20 mM MOPS, 2 mM EGTA, 5 mM EDTA, 30 mM NaF, 40 mM (3-glycerophosphate, 20 mM sodium pyruvate, 0.5% Triton X-100, and 1 mM sodium orthovanadate with protease inhibitor cocktail (Sigma), and the cell lysates were subjected to protein analysis and western blotting analysis to assess for VEGF (vascular endothelial growth factor), FGF or bFGF (basic fibroblast growth factor), and FLK-1 (a VEGFR2 receptor protein) using the relevant antibodies of VEFG (R&D System), bFGF (Upstate Biotechnology); FLK-1 (Santa Cruz Biotechnology). (See Ma, J. et al., “PTEN regulate angiogenesis through PI3k/AktNEGF signaling pathway in human pancreatic cancer cells,” Mol. Cell Biochem., vol. 331, pp. 161-171 (2009); and Sukhthanjar, M., et al., “A green tea component suppresses posttranslational expression of basic fibroblast growth factor in colorectal cancer. Gastroenterology,” vol. 134, pp. 1972-1980 (2008)). β-Actin was used as a quality control of the assays.

[3] = test system: bFGF; assay: Western blot of HUVEC cell lysates for bFGF expression; assay type: cell-based, human; conditions: 24 hrs, concentrations up to about 40 μg/ml
Experimental: as §1

[4] = test system: FLK-1 (a VEGFR2 receptor protein); assay: Western blot of HUVEC cell lysates for FLK-1 expression; assay type: cell-based, human; conditions: 24 hrs, concentrations up to about 40 μg/ml
Experimental: The HUVEC assay used human umbilical vein endothelial cells purchased from the American Type Culture Collection (ATCC # CRL-1730, Manassas, Va.). Human umbilical vein endothelial cells (HUVEC) were grown in M199 media containing 20% fetal bovine serum, 30 μg/ml endothelial cell growth supplements, 4 mM L-glutamin, 100 U/ml penicillin, and 100 μg/ml streptomycin. Cells were incubated at 37° C. in a humidified atmosphere of 5% CO2. […] Cells were then lysed with lysis buffer containing 20 mM MOPS, 2 mM EGTA, 5 mM EDTA, 30 mM NaF, 40 mM (3-glycerophosphate, 20 mM sodium pyruvate, 0.5% Triton X-100, and 1 mM sodium orthovanadate with protease inhibitor cocktail (Sigma), and the cell lysates were subjected to protein analysis and western blotting analysis to assess for VEGF (vascular endothelial growth factor), FGF or bFGF (basic fibroblast growth factor), and FLK-1 (a VEGFR2 receptor protein) using the relevant antibodies of VEFG (R&D System), bFGF (Upstate Biotechnology); FLK-1 (Santa Cruz Biotechnology). (See Ma, J. et al., “PTEN regulate angiogenesis through PI3k/AktNEGF signaling pathway in human pancreatic cancer cells,” Mol. Cell Biochem., vol. 331, pp. 161-171 (2009); and Sukhthanjar, M., et al., “A green tea component suppresses posttranslational expression of basic fibroblast growth factor in colorectal cancer. Gastroenterology,” vol. […]

[5] = rats, 24 hr urine after oral RUS 1.0 g/kg of body weight

Structure (SMILES)	Oral bioavailability / absorption [1]	Expression of VEGF [2]	Expression of bFGF [3]	Unmetabolized compound in the urine [1, 5] [µg]	Unmetabolized compound in urine as % of amount orally administered [1, 5]	Expression of FLK-1 [4]
O=c1oc2c(O)c(O)cc3c(=O)oc4c(O)c(O)cc1c4c23 [ellagic acid]	orally bioavailable	inhibited the expression of VEGF in a concentration-dependent manner	did not suppress the expression of bFGF	–	–	–
O=C(O)c1cc(O)c(O)c(O)c1 [gallic acid]	–	inhibited the expression of VEGF in a concentration-dependent manner	did not suppress the expression of bFGF	91.7	about 4.5%	slightly reduced the expression of FLK-1
C=C1C[C@@]23CC[C@H]4[C@@](C)(CCC[C@@]4(C)C(=O)O[C@@H]4O[C@H](CO)[C@@H](O)[C@H](O)[C@H]4O)[C@@H]2CC[C@]1(O[C@@H]1O[C@H](CO)[C@@H](O)[C@H](O)[C@H]1O)C3 [rubusoside]	orally bioavailable	did not inhibit the expression of either bFGF or VEGF	did not inhibit the expression of either bFGF or VEGF	–	–	reduced the expression of FLK-1
